Reference: patent US10899733B2, “Inhibitors of PARPs that catalyze mono-ADP-ribosylation” (OREGON HEALTH & SCIENCE UNIVERSITY, priority 2017, dated 2021)
Where two headings read alike, the source gives them in different places.

What was measured:
Experiment in all cases: PARP panel: ADP-ribosylation of SRPK2 using 6-a-NAD+
Assay type in all cases: biochemical
[1] = target: PARP1 (Homo sapiens, UniProt P09874)
Description: (§1) We screened 22 against poly-ADPr PARPs (PARPs 1, 2, and PARP5b) and mono-ADPr PARPs (PARPs 3, 4, 10, 11, 14, and 15) in an assay that measures ADP-ribosylation of SRPK2 using an N^6-alkyne tagged NAD^+ (6-a-NAD^+), a clickable NAD^+ analogue.{Jiang et al., 2010, J. Am. Chem. Soc. […] The observed selectivity is most likely due to the differences in the last position of the H-Y-E catalytic triad of these enzymes versus the H-Y-I triad found in PARP10. {Hottiger et al., 2010, Trends Biochem. Sci. 35, pp. 208-219} The glutamate (E988 in PARP1) in PARPs 1-4 and PARP 5b most likely clash with the pyridiny-4-yl group at the 6-position of 22, while PARP10 contains an isoleucine (1978) at this position that can accommodate this group (FIG. 1B).

[2] = target: T1, PARP10cat (Homo sapiens, UniProt Q53GL7)
T1 sequence (Q53GL7 806-1025 limits assumed): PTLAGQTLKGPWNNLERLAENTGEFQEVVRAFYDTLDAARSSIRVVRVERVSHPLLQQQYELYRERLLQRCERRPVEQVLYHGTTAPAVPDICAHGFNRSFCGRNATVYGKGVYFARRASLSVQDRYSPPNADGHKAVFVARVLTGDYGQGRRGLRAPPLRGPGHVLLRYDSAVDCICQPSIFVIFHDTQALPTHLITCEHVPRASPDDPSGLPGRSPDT
Description: as §1

[3] = target: T2, PARP11 (Homo sapiens, UniProt Q9NR21)
T2 sequence (Q9NR21 1-338): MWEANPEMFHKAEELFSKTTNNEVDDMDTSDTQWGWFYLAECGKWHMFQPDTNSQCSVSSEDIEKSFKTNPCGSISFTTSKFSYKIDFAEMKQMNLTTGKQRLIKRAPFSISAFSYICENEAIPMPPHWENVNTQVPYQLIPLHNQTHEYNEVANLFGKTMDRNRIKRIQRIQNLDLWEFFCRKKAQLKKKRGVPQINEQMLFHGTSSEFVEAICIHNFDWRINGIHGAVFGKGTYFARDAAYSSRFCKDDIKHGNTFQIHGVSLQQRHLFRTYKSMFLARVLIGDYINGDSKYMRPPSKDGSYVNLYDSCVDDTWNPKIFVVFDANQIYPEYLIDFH
Description: as §1

[4] = target: T3, PARP14cat-wwe (Homo sapiens, UniProt Q460N5); conditions: 6-a-NAD+
T3 construct: PARP14cat-wwe
T3 sequence (Q460N5 1523-1801): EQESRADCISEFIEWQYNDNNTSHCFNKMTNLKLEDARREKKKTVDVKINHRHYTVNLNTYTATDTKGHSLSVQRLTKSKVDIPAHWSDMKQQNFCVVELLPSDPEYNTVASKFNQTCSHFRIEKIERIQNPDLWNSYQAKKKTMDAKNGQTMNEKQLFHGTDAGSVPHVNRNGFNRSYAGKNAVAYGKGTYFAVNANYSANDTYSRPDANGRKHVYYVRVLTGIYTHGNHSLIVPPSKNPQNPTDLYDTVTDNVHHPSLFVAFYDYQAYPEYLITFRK
Description: as §1

[5] = test system: PARP14cat-wwe; conditions: PARP14cat-wwe over PARP10cat
Description: as §1

[6] = target: T4, PARP15cat (Homo sapiens, UniProt Q460N3)
T4 construct: PARP15cat
T4 sequence (Q460N3 482-678 limits assumed): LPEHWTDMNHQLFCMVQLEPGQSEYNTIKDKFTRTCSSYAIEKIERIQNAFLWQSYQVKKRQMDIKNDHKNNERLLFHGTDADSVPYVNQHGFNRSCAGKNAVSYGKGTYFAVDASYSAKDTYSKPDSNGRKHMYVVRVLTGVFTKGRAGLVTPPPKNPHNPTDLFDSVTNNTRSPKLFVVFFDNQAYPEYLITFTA
Description: as §1

[7] = target: PARP2 (Homo sapiens, UniProt Q9UGN5)
Sequence of PARP2 (Q9UGN5 whole entry): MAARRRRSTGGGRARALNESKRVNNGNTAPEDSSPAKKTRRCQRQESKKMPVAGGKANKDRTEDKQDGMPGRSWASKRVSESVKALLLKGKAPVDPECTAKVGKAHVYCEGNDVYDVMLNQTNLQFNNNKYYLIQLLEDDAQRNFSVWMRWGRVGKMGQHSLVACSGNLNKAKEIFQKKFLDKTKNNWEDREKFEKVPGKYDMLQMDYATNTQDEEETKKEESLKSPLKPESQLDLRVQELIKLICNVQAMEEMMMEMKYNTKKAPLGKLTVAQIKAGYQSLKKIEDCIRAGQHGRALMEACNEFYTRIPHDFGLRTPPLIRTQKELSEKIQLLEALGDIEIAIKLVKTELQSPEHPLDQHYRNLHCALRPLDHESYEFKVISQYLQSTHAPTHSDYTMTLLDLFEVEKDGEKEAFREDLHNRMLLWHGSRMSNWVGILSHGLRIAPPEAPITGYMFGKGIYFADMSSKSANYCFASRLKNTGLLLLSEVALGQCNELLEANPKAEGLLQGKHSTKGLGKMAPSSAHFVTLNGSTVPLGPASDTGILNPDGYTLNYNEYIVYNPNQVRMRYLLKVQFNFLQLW
Description: as §1

[8] = target: T5, PARP3 (Homo sapiens, UniProt Q9Y6F1)
T5 sequence (Q9Y6F1 1-533): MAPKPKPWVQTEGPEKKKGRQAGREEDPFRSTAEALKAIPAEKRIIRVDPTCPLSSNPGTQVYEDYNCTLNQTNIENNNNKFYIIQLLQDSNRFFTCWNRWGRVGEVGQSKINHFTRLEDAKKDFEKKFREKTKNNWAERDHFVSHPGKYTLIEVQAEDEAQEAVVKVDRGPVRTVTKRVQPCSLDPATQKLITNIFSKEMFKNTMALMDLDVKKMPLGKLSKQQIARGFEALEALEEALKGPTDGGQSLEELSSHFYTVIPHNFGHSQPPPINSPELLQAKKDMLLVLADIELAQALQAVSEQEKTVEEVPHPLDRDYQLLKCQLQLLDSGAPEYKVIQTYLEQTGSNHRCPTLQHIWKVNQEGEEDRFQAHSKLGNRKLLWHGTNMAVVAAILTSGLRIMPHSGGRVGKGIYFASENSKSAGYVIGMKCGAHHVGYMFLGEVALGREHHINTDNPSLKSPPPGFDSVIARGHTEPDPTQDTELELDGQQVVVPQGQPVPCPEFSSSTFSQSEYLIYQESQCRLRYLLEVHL
Description: as §1

[9] = target: T6, PARP4brct-cat (Homo sapiens, UniProt Q9UKK3); conditions: up to 100 μM
T6 construct: PARP4brct-cat
T6 sequence (Q9UKK3 whole entry): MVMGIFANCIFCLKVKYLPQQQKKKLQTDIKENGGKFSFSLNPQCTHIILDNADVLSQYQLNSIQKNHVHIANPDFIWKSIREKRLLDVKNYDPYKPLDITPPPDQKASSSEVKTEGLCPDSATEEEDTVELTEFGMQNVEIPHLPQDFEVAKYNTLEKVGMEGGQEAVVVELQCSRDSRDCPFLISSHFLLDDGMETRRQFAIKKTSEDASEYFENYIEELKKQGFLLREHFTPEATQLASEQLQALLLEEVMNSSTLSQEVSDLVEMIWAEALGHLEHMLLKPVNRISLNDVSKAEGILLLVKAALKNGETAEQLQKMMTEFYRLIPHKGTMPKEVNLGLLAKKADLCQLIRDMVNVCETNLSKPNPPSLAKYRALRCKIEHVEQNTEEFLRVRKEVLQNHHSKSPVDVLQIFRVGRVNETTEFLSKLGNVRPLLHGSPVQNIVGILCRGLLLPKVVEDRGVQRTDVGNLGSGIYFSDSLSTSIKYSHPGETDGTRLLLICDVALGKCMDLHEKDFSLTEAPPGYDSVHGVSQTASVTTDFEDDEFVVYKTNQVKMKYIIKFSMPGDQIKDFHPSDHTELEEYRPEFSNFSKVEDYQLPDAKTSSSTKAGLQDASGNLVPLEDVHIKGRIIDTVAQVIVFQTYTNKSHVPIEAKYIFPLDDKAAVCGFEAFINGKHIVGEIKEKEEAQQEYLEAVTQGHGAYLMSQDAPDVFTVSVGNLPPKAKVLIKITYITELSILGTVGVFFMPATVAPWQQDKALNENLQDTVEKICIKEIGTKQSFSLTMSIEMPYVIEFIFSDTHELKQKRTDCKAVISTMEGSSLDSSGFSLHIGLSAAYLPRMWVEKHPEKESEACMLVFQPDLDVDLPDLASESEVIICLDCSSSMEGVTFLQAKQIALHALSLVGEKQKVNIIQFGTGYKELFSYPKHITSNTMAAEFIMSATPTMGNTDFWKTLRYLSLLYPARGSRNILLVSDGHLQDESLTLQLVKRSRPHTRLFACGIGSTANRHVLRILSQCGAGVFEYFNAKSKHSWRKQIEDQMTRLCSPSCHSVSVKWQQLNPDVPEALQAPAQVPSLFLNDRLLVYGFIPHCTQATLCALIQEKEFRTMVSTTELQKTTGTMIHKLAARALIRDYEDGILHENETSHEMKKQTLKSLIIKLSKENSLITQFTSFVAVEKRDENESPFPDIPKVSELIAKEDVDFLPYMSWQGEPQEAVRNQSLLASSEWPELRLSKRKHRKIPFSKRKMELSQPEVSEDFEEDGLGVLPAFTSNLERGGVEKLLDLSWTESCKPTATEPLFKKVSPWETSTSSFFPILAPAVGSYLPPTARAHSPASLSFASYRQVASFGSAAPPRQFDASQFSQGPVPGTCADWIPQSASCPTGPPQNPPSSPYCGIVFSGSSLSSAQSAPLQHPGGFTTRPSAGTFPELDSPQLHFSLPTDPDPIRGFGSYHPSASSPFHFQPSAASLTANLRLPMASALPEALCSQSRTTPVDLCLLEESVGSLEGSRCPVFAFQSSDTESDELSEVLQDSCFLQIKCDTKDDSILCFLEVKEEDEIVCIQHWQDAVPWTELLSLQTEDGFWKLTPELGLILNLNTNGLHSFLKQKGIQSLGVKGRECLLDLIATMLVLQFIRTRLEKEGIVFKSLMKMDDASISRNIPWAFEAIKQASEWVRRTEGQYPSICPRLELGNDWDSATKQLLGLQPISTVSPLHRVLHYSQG
Description: as §1

[10] = test system: PARP4brct-cat; conditions: PARP4brct-cat over PARP10cat
Description: as §1

[11] = target: T7, PARP5bcat (Homo sapiens, UniProt Q9H2K2)
T7 construct: PARP5bcat
T7 sequence (Q9H2K2 959-1164): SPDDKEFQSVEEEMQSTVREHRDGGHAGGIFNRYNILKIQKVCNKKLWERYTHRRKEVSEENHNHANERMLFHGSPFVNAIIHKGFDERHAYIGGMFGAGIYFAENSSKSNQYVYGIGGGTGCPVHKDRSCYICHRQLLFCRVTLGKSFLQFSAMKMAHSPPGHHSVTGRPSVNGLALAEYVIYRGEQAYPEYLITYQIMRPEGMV
Description: as §1

Sequence of PARP1 (P09874 whole entry): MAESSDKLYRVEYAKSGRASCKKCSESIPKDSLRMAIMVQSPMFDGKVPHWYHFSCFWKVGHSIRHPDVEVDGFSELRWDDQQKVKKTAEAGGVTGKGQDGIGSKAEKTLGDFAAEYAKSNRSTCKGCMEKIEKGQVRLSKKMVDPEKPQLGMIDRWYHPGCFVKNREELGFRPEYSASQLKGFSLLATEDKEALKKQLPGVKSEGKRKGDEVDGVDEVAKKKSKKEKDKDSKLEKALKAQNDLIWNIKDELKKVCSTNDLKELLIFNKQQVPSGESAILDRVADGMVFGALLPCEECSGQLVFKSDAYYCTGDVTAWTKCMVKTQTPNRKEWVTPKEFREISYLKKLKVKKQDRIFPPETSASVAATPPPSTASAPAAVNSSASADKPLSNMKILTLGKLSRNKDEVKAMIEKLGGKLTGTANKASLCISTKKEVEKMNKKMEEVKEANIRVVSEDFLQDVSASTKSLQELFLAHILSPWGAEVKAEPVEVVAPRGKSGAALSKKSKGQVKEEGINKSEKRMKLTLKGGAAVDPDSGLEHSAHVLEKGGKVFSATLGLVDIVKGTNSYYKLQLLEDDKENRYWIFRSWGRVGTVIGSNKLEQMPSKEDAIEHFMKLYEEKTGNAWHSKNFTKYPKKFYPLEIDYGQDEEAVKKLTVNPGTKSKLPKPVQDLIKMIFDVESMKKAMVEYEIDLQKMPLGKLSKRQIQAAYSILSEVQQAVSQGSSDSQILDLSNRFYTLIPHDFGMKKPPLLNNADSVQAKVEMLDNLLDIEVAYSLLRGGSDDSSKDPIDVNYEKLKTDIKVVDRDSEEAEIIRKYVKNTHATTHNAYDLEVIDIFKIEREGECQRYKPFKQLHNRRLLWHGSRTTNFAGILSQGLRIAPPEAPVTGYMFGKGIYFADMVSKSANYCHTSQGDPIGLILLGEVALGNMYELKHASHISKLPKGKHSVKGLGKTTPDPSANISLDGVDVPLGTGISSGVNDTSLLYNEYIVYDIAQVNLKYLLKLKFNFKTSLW

Cc1c(-c2ccnc(C(F)(F)F)c2)ccc2c1CCNC2=O [Compound 22, 5-methyl-6-(2-(trifluoromethyl)pyridin-4-yl)-3,4-dihydroisoquinolin-1(2H)-one]
IC50 ([1]; 6-a-NAD+): > 100 µM
PARP/PARP10 ([1]; PARP1 over PARP10cat): >>37
inhibition of PARP1 ([1]; up to 100 μM): does not inhibit
selectivity for PARP10 over PARPs 1-4 and PARP 5b ([2]; 6-a-NAD+): greater than 37 fold
IC50 ([2]; 6-a-NAD+, read-out: PARP10cat IC50): 2.7 µM
IC50 ([2]; 6-a-NAD+, read-out: PARP10cat pIC50 ± S.E.M. (converted)): 2.75 µM
PARP/PARP10 ([2]; PARP10cat over PARP10cat): 1
IC50 ([3]; 6-a-NAD+): 62.9 µM
PARP/PARP10 ([3]; PARP11 over PARP10cat): 23
IC50 [4]: 60.5 µM
PARP14cat-wwe pIC50 ± S.E.M. [4]: 4.22 ± 0.04
PARP/PARP10 [5]: 22
IC50 ([6]; 6-a-NAD+): 62.9 µM
PARP15cat pIC50 ± S.E.M. ([6]; 6-a-NAD+): 4.20 ± 0.05
PARP/PARP10 ([6]; PARP15cat over PARP10cat): 23
IC50 ([7]; 6-a-NAD+): > 100 µM
PARP/PARP10 ([7]; PARP2 over PARP10cat): >37
inhibition of PARP2 ([7]; up to 100 μM): does not inhibit
IC50 ([8]; 6-a-NAD+): > 100 µM
PARP/PARP10 ([8]; PARP3 over PARP10cat): >>37
inhibition of PARP3 ([8]; up to 100 μM): does not inhibit
inhibition of PARP4 [9]: does not inhibit
PARP/PARP10 [10]: >37
IC50 ([11]; 6-a-NAD+): > 100 µM
PARP/PARP10 ([11]; PARP5bcat over PARP10cat): >>37
inhibition of PARP 5b ([11]; up to 100 μM): does not inhibit
